Test results as given in ChEMBL document CHEMBL1147749, “Aromatic sulfide inhibitors of histone deacetylase based on arylsulfinyl-2,4-hexadienoic acid hydroxyamides” (J Med Chem, 2006).

How the values were obtained:
Histone deacetylase [1] = assay: Inhibition of HDAC in rat liver homogenate; assay type: tissue-based
Histone deacetylase [2] = assay: Inhibition of HDAC in human leukemic CEM cells; assay type: cell-based; details: ccrf-cem
CCRF-CEM = assay: Inhibition of human leukemic CEM cell viability; assay type: functional, cell-based
HCT-116 = assay: Inhibition of human colorectal cancer HCT116 cell viability; assay type: functional, cell-based
SUD4 = assay: Inhibition of human lymphoma SUD4 cell viability; assay type: functional, cell-based; details: SU-DHL-4
MCF7 = assay: Inhibition of human breast cancer MCF7 cell viability; assay type: functional, cell-based

IC50 (Histone deacetylase [1]) [µM] | IC50 (Histone deacetylase [2]) [µM] | Structure (SMILES) | further results
0.04 |  | O=C(CCCCCS(=O)(=O)c1ccccc1)NO | 
0.12 |  | O=C(CCCCCSc1ccccc1)NO | 
0.11 |  | O=C(CCCCCSc1ccc(NS(=O)(=O)c2ccc(Cl)cc2)cc1)NO | 
0.06 | 7.7 | O=C(CCCCC[S+]([O-])c1ccccc1)NO (centres undefined) | 
0.26 | > 25 | O=C(CCCCCSc1ccc(Cl)cc1)NO | 

The next lines start with the compound.

Structure (SMILES) | IC50 (Histone deacetylase [1]) [µM] | IC50 (Histone deacetylase [2]) [µM] | further results
COc1ccc([S+]([O-])C/C=C/C=C/C(=O)NO)cc1 (centres undefined) | 0.41 | 5.4 | IC50 (CCRF-CEM): 9.6 µM
CC(/C=C/C(=O)NO)=C\C(C)Sc1ccc(N(C)C)cc1 (centres undefined) | 0.34 | 5.3 | IC50 (CCRF-CEM): 7.5 µM
CN(C)c1ccc(Sc2cccc(/C=C/C(=O)NO)c2)cc1 | 0.16 | 8.6 | IC50 (CCRF-CEM): 3.4 µM
CN(C)c1ccc([S+]([O-])CCCCCC(=O)NO)cc1 (centres undefined) | 0.18 |  | 
O=C(/C=C/C=C/CSc1ccc2ccccc2c1)NO | 0.7 | 9.4 | IC50 (CCRF-CEM): 1.7 µM
CN(C)c1ccc2sc(/C=C/C=C/C(=O)NO)cc2c1 | > 25 |  | 
O=C(CCCCC[S+]([O-])c1ccc(Cl)cc1)NO (centres undefined) |  |  | IC50 (HCT-116): 3.9 µM; IC50 (SUD4): 7.5 µM; IC50 (MCF7): 6.1 µM
O=C(CCCCCC[S+]([O-])c1ccc(Cl)cc1)NO (centres undefined) | 0.38 |  | 
O=C(/C=C/C=C/C[S+]([O-])c1ccccc1)NO (centres undefined) | 0.24 | > 25 | 
O=C(/C=C/C=C/CSc1ccccc1)NO | 0.39 | > 25 | 
O=C(/C=C/C=C/CSc1ccc(Cl)cc1)NO | 0.31 | 1.6 | IC50 (CCRF-CEM): 1.6 µM
O=C(/C=C/C=C/C[S+]([O-])c1ccc(Cl)cc1)NO (centres undefined) | 0.4 | 1.2 | 
